Assay results taken from patent US20190133964A1, “Polypeptide nano-bubbles and preparation method and application thereof” (NANJING MEDICAL UNIVERSITY, priority 2018, published 2019).

Legend:
[1] = tested on: mice fed with high-fat diet; assay: Weight of mice fed with high-fat diet during drug administration; type: in vivo; conditions: tail vein injection daily, 12 weeks after drug administration onward, FIG. 5
Source text: Experimental animals: male mice at the age of 6 weeks and feed were provided by the Experimental Animal Center of Nanjing Medical University, license number: SCXK (Su) 2011-0003. The animals are fed in different cages randomly, and drink water freely.
Experimental drugs: normal diet control group (blank control group); and high-fat diet groups are divided into a normal saline group (model control group), a nano-bubble group, a nano-bubble-curcumin group, a polypeptide nano-bubble group (prepared by step 3) in embodiment 1), a curcumin group and a polypeptide nano-bubble-curcumin group (prepared by step 4) in embodiment 1). […]

mice fed with high fat = assay: Storage of visceral and subcutaneous adipose of mice fed with high fat; type: in vivo; conditions: for Weight: body weight after 20 weeks
Method: • 1) The obese mice fed with high fat are subjected to drug administration by intravenous injection for 20 weeks according to experimental steps in embodiment 2; • 2) the mice in the various groups are not fed with food for 12 hours, and are weighed accurately after being anaesthetized with 3% pentobarbital sodium at 45 mg/kg by intraperitoneal injection; • 3) the mice are conventionally sterilized and subjected to laparotomy, kidney surrounding adipose tissues, mesenterium surrounding adipose tissues, epididymis surrounding adipose tissues and abdominal subcutaneous adipose tissues are rapidly picked to weigh wet weight (wherein the range of the abdominal subcutaneous adipose tissues is as follows: the abdomen below an costal arch and above a groin, and a midaxillary line is taken as a boundary for two sides); • 4) the weight is calculated according to the following formula: wet weight of abdominal adipose; adipose pad total weight (g)=the kidney surrounding adipose tissues+the epididymis surrounding adipose tissues; and body adipose content=the adipose pad total weight (g)/body weight (g). • 5) The obtained data is subjected to statistical treatment.

[2] = high-fat diet mice, 20 weeks, n = 10
[3] = high-fat diet mice, tail vein injection 20 weeks, curcumin 75 mg/kg or nano-bubbles 40 μg/mice/time, n = 10, wet weight

COc1cc(/C=C/C(=O)CC(=O)/C=C/c2ccc(O)c(OC)c2)ccc1O [Curcumin, curcumin]
Increasing of the weight of the mice compared with the model control group [1]: obviously inhibited | Wet weight of the visceral adipose tissues compared with the model control group (mice fed with high fat; Table 6): reduced obviously | Total weight of visceral adipose tissues (mice fed with high fat; Table 6, high-fat diet mice, tail vein injection 20 weeks, n = 10): 8.03 ± 0.02 g | Body fat mass index compared with the model control group (mice fed with high fat; Table 7): obviously reduced | Weight (mice fed with high fat; Table 7, high-fat diet mice, n = 10): 34.92 ± 0.96 g | Weight (mice fed with high fat; Table 8, high-fat diet mice, n = 10): 35.72 ± 0.75 g | VAT (total weight of visceral adipose tissues) (mice fed with high fat; Table 8, high-fat diet mice, 20 weeks, n = 10): 7.24 ± 0.02 g | Body fat mass index (mice fed with high fat; fat pad total weight (g)/weight (g), high-fat diet mice, 20 weeks, n = 10): 6.38 ± 0.21 % | SCAT (subcutaneous adipose tissue total weight) (mice fed with high fat; [2]): 3.01 ± 0.05 g | SCAT/weight (mice fed with high fat; [2]): 7.02 ± 0.38 | VAT/SCAT (mice fed with high fat; [2]): 1.78 ± 0.09 | Amount of visceral adipose tissues: Epididymis surrounding (mice fed with high fat; [3]): 1.21 ± 0.18 g | Amount of visceral adipose tissues: Kidney surrounding (mice fed with high fat; [3]): 0.72 ± 0.05 g | Amount of visceral adipose tissues: Omentum and mesenterium surrounding (mice fed with high fat; [3]): 0.59 ± 0.02 g | Fat pad total weight (mice fed with high fat; kidney surrounding + epididymis surrounding adipose tissues, high-fat diet mice, 20 weeks, n = 10): 2.34 ± 0.10 g | Weight of the subcutaneous adipose compared with the model group (mice fed with high fat; text on Table 8): remarkably reduced
